Source: patent US6630477B1, “Therapeutic nucleoside compound” (SmithKline Beecham Corporation, priority 1999, dated 2003)
pIC50: −log10 of the molar value.

Legend:
Hepatitis B virus = assay: Hepatitis B Virus Activity (method of Jansen et al. 1993); format: cell-based; conditions: n=2, read-out: IC50 against Hepatitis B virus
Protocol: (§1) The activity of compounds against Hepatitis B Virus was assessed as described in Jansen, R. et al., Antimicrobial Agents and Chemotherapy, Vol. 37, No. 3, pp. 441-447, 1993.

[1] = Cytotoxicity (reported with the Hepatitis B virus activity test); format: cell-based
Protocol: as §1

Nc1ncnc2c1ncn2[C@@H]1C=C[C@H](CO)C1 [(+)-(1R,4S)-4-(6-Amino-9H-purin-9-yl)-2-cyclopentene-1-methanol]
pIC50 (Hepatitis B virus): 6.00 | Cytotoxicity [1]: > 200 µM | melting point: 195 to 200 °C
